Experimental data reported in patent publication US7601745B2, “Heterocyclic NF-kB inhibitors” (4SC AG, priority 2004, dated 2009).

system: A549-NF-κB-SEAP reporter cells; test: Inhibition of NF-κB-induced inflammation ([…] NINA Instant Assay, SEAP reporter); type: cell-based; details: compounds of formula (I); TNF-α stimulated reporter cells; test concentration not given
Source text: For the determination of anti-inflammatory activity of the compounds the […]® NINA Instant Assay from Cell Culture Service GmBH was used. This assay is based on recombinant A549-NF-κB-SEAP reporter cells preseeded in 96-well flat bottom plates. As the transfected reportergen for SEAP (secreted embryonic alkaline phosphatase) is under transcriptional control of a NF-κB-responsive element, the expression of this reporter is activated upon stimulation with TNF-α. SEAP secretion into the culture supernatant can be detected by the chemiluminescent substrate CSPD®. Test compounds that inhibit the NF-κB activation show reduced SEAP activity and reduced luminescent readout.
Following 18 h of reactivation at 37° C., 5% CO2 and 90% relative humidity, the cells were incubated with 0.01 up to 100 μM of test compound for 4.5 h before stimulation with 2 ng/ml TNF-α. After stimulation with TNF-α for 22 h endogenous phosphatases were inactivated and CSPD® substrate was supplied for 40 min. SEAP activity then was quantified by measuring luminescence as relative light units (RLU) using a Tecan Ultra reader. Each data point was recorded in quadruplicates and EC50 values were calculated via fitting function and the Microsoft Excel Solver.

Row | Structure (SMILES) | Biological activity (NF-κB inflammation assay, inhibition)
1 | O=C(c1csc(C2CCN(C(=O)c3ccccc3OC(F)(F)F)CC2)n1)N(CCc1ccccc1)Cc1ccccc1 [compound 149] | + (“+” stands for 50-80% inhibition)
2 | O=C(c1csc(C2CCN(C(=O)c3ccccc3OC(F)(F)F)CC2)n1)N1CCN(c2cccc(Cl)c2)CC1 [compound 151] | + (“+” stands for 50-80% inhibition)
3 | COc1nc(OC)nc(N2CCN(C(=O)c3csc(C4CCNCC4)n3)CC2)n1 [compound 152] | ++ (“++” means 80-90%)
4 | COc1ccc(N2CCC(c3nc(C(=O)N4CCN(c5cccc(C(F)(F)F)c5)CC4)cs3)CC2)c(OC)c1 [compound 153] | + (“+” stands for 50-80% inhibition)
5 | O=C(c1csc(C2CCN(c3ccc(OC(F)(F)F)cc3)CC2)n1)N1CCN(c2cccc(C(F)(F)F)c2)CC1 [compound 154] | + (“+” stands for 50-80% inhibition)
6 | O=C(c1csc(C2CCN(c3ccc(C(F)(F)F)cc3)CC2)n1)N1CCN(c2cccc(C(F)(F)F)c2)CC1 [compound 155] | + (“+” stands for 50-80% inhibition)
7 | O=C(c1csc(C2CCN(c3ccc4c(c3)OCO4)CC2)n1)N1CCN(c2cccc(C(F)(F)F)c2)CC1 [compound 156] | + (“+” stands for 50-80% inhibition)
8 | O=C(c1csc(C2CCN(c3ccc4c(c3)OCCO4)CC2)n1)N1CCN(c2cccc(C(F)(F)F)c2)CC1 [compound 157] | + (“+” stands for 50-80% inhibition)
9 | COc1ccccc1N1CCC(c2nc(C(=O)N3CCN(c4cccc(C(F)(F)F)c4)CC3)cs2)CC1 [compound 158] | + (“+” stands for 50-80% inhibition)
10 | COc1ccc(N2CCC(c3nc(C(=O)N4CCN(c5cccc(C(F)(F)F)c5)CC4)cs3)CC2)cc1OC [compound 159] | + (“+” stands for 50-80% inhibition)
11 | COc1cc(N2CCC(c3nc(C(=O)N4CCN(c5cccc(C(F)(F)F)c5)CC4)cs3)CC2)nc(OC)n1 [compound 164] | ++ (“++” means 80-90%)
12 | O=C(c1csc(C2CCN(Cc3ccccc3Br)CC2)n1)N1CCN(c2cccc(C(F)(F)F)c2)CC1 [compound 165] | + (“+” stands for 50-80% inhibition)
13 | N#Cc1ccc(CN2CCC(c3nc(C(=O)N4CCN(c5cccc(C(F)(F)F)c5)CC4)cs3)CC2)cc1 [compound 166] | + (“+” stands for 50-80% inhibition)
14 | O=C(c1csc(C2CCN(Cc3ccc(-c4ccccc4)cc3)CC2)n1)N1CCN(c2cccc(C(F)(F)F)c2)CC1 [compound 167] | + (“+” stands for 50-80% inhibition)
15 | O=C(c1csc(C2CCN(Cc3c(F)cccc3F)CC2)n1)N1CCN(c2cccc(C(F)(F)F)c2)CC1 [compound 168] | + (“+” stands for 50-80% inhibition)
16 | O=C(c1csc(C2CCN(Cc3ccc(C(F)(F)F)cc3)CC2)n1)N1CCN(c2cccc(C(F)(F)F)c2)CC1 [compound 169] | + (“+” stands for 50-80% inhibition)
17 | O=C(c1csc(C2CCN(Cc3ccc(F)cc3)CC2)n1)N1CCN(c2cccc(C(F)(F)F)c2)CC1 [compound 170] | + (“+” stands for 50-80% inhibition)
18 | O=C(c1csc(C2CCN(Cc3ccc(F)cc3Cl)CC2)n1)N1CCN(c2cccc(C(F)(F)F)c2)CC1 [compound 171] | + (“+” stands for 50-80% inhibition)
19 | O=C(c1csc(C2CCN(Cc3ccc(OC(F)(F)F)cc3)CC2)n1)N1CCN(c2cccc(C(F)(F)F)c2)CC1 [compound 172] | + (“+” stands for 50-80% inhibition)
20 | COc1cccc(CN2CCC(c3nc(C(=O)N4CCN(c5cccc(C(F)(F)F)c5)CC4)cs3)CC2)c1 [compound 173] | + (“+” stands for 50-80% inhibition)
21 | O=C(c1csc(C2CCN(Cc3ccc(Br)cc3)CC2)n1)N1CCN(c2cccc(C(F)(F)F)c2)CC1 [compound 174] | + (“+” stands for 50-80% inhibition)
22 | O=C(c1csc(C2CCN(Cc3cc(C(F)(F)F)cc(C(F)(F)F)c3)CC2)n1)N1CCN(c2cccc(C(F)(F)F)c2)CC1 [compound 175] | + (“+” stands for 50-80% inhibition)

Row | Structure (SMILES) | Biological activity (NF-κB inflammation assay, inhibition)
23 | COc1nc(OC)nc(N2CCC(c3nc(C(=O)N4CCN(c5cccc(C(F)(F)F)c5)CC4)cs3)CC2)n1 [compound 176] | + (“+” stands for 50-80% inhibition)
24 | O=C(c1csc(C2CCN(Cc3ccccc3)CC2)n1)N1CCN(c2cccc(C(F)(F)F)c2)CC1 [compound 177] | + (“+” stands for 50-80% inhibition)
25 | COc1cccc(N2CCC(c3nc(C(=O)N4CCN(c5cccc(C(F)(F)F)c5)CC4)cs3)CC2)c1 [compound 178] | + (“+” stands for 50-80% inhibition)
26 | O=C(Cc1ccc(F)cc1)N1CCC(c2nc(C(=O)N3CCN(c4ccccc4)CC3)cs2)CC1 [compound 180] | + (“+” stands for 50-80% inhibition)
27 | O=C(Cc1ccc(F)cc1)N1CCC(c2nc(C(=O)N3CCC(n4nnc5cc(C(F)(F)F)ccc54)CC3)cs2)CC1 [compound 181] | + (“+” stands for 50-80% inhibition)
28 | O=C(Cc1ccc(F)cc1)N1CCC(c2nc(C(=O)N3CCC(n4nnc5ccccc54)CC3)cs2)CC1 [compound 182] | + (“+” stands for 50-80% inhibition)
29 | O=C(O)c1cccnc1C(=O)N1CCC(c2nc(C(=O)N3CCN(c4cccc(C(F)(F)F)c4)CC3)cs2)CC1 [compound 183] | + (“+” stands for 50-80% inhibition)
30 | O=C(O)c1ccc(C(=O)O)c(C(=O)N2CCC(c3nc(C(=O)N4CCN(c5cccc(C(F)(F)F)c5)CC4)cs3)CC2)c1 [compound 184] | + (“+” stands for 50-80% inhibition)
31 | O=C(O)c1ccccc1C(=O)N1CCC(c2nc(C(=O)N3CCN(c4cccc(C(F)(F)F)c4)CC3)cs2)CC1 [compound 185] | + (“+” stands for 50-80% inhibition)
32 | O=C(O)c1cccc(O)c1C(=O)N1CCC(c2nc(C(=O)N3CCN(c4cccc(C(F)(F)F)c4)CC3)cs2)CC1 [compound 186] | + (“+” stands for 50-80% inhibition)
33 | O=C(O)c1cc(Cl)c(Cl)cc1C(=O)N1CCC(c2nc(C(=O)N3CCN(c4cccc(C(F)(F)F)c4)CC3)cs2)CC1 [compound 187] | + (“+” stands for 50-80% inhibition)
34 | O=C(O)C1=C(C(=O)N2CCC(c3nc(C(=O)N4CCN(c5cccc(C(F)(F)F)c5)CC4)cs3)CC2)CCC1 [compound 188] | + (“+” stands for 50-80% inhibition)
35 | O=C(O)C1CCCCC1C(=O)N1CCC(c2nc(C(=O)N3CCN(c4cccc(C(F)(F)F)c4)CC3)cs2)CC1 (centres unmarked) [compound 189] | + (“+” stands for 50-80% inhibition)
36 | O=C(O)C1=C(C(=O)N2CCC(c3nc(C(=O)N4CCN(c5cccc(C(F)(F)F)c5)CC4)cs3)CC2)CCCC1 [compound 190] | + (“+” stands for 50-80% inhibition)
37 | O=C(O)C=CC(=O)N1CCC(c2nc(C(=O)N3CCN(c4cccc(C(F)(F)F)c4)CC3)cs2)CC1 [compound 191] | + (“+” stands for 50-80% inhibition)
38 | Cc1noc(C)c1S(=O)(=O)N1CCC(c2nc(C(=O)N3CCN(c4cccc(C(F)(F)F)c4)CC3)cs2)CC1 [compound 192] | + (“+” stands for 50-80% inhibition)
39 | O=C(c1csc(C2CCN(S(=O)(=O)c3c(F)c(F)c(F)c(F)c3F)CC2)n1)N1CCN(c2cccc(C(F)(F)F)c2)CC1 [compound 193] | + (“+” stands for 50-80% inhibition)
40 | O=C(c1csc(C2CCN(S(=O)(=O)c3cccs3)CC2)n1)N1CCN(c2cccc(C(F)(F)F)c2)CC1 [compound 194] | + (“+” stands for 50-80% inhibition)
41 | O=C(c1csc(C2CCN(S(=O)(=O)c3ccc(F)cc3Cl)CC2)n1)N1CCN(c2cccc(C(F)(F)F)c2)CC1 [compound 195] | + (“+” stands for 50-80% inhibition)
42 | O=C(c1csc(C2CCN(S(=O)(=O)c3ccccc3Br)CC2)n1)N1CCN(c2cccc(C(F)(F)F)c2)CC1 [compound 196] | + (“+” stands for 50-80% inhibition)
43 | O=C(c1csc(C2CCN(S(=O)(=O)c3c(Cl)nc4sccn34)CC2)n1)N1CCN(c2cccc(C(F)(F)F)c2)CC1 [compound 197] | + (“+” stands for 50-80% inhibition)

same assay, conditions: compounds of formula (Ic); TNF-α stimulated reporter cells; test concentration not given

Row | Structure (SMILES) | Biological activity (NF-κB inflammation assay, inhibition)
44 | CNc1ccc(Cl)cc1C1c2ccccc2CCN1C(=O)c1csc(C2CCN(C(=O)c3ccccc3OC(F)(F)F)CC2)n1 (centres unmarked) [compound 150] | ++ (“++” means 80-90%)
45 | O=C(Cc1ccc(F)cc1)N1CCC(c2nc(C(=O)N3CCc4cc(O)c(O)cc4C3)cs2)CC1 [compound 160] | + (“+” stands for 50-80% inhibition)
46 | COc1cc2c(cc1OC)CN(C(=O)c1csc(C3CCN(C(=O)Cc4ccc(F)cc4)CC3)n1)CC2 [compound 161] | + (“+” stands for 50-80% inhibition)
47 | O=C(Cc1ccc(F)cc1)N1CCC(c2nc(C(=O)N3CCc4ccccc4C3)cs2)CC1 [compound 163] | + (“+” stands for 50-80% inhibition)
